We go through two molecules from paper PMC12598851, “Exploiting Avidity Effects for the Discovery of Low Affinity Protein-Binding Fragments” (Journal of Medicinal Chemistry, 2025).

The target in data set [1] is SA. The following applies: in solution; cited from earlier work.
For data set [2], the system named is SA. In words: Affinity of macrocycle 1 for SA in solution. It is filed as binding. The following applies: KD in solution against KD of compound 2.
Another data set deals with T1, SA-647 (Streptomyces avidinii, UniProt P22629).
T1 construct: purchased ThermoFisher S3235
T1 sequence (P22629 37-163 limits assumed): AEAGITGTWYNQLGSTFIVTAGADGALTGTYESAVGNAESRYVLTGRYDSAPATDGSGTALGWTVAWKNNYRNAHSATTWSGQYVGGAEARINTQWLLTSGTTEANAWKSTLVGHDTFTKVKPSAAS
In words: Dose-dependent binding of SA-647 to bead-displayed ligands by FACS (MFI). The following applies: SA-647 0.1 to 1000 nM. Here is the method: We next asked if the bead binding assay could distinguish complexes with different affinities for SA. 10 μm TentaGel beads displaying compound 2, compound 3, the oxazole analogue of compound 2 (Figure S4), or the SA-binding macrocycle 1 shown in Figure a were exposed to different concentrations of SA-647 ranging from 0.1 to 1000 nM. After washing, the intensity of fluorescence retained on the beads was measured using a flow cytometer, and the results were plotted as the mean fluorescence intensity (MFI) on the beads vs the protein concentration. […] Macrocycle 1, which binds SA with a K D of about 600 nM in solution (more than 1000 times more tightly than compound 2), binds SA-647 on resin at far lower concentrations than does compound 2.
(Flow cytometry measures light scatter and fluorescence of single cells or particles in a stream.)

The target of data set [3] is T2, Rpn2-binding surface of Rpn13 (GST-Rpn13 PRU) (Homo sapiens, UniProt Q16186).
T2 construct: the human Rpn13 PRU (pleckstrin-like receptor for ubiquitin) domain is linked to the C-terminus of GST; His6 (C); made in house; host or cells: E. coli BL21 (DE3) codon plus RP
T2 sequence (Q16186 18-131 limits assumed): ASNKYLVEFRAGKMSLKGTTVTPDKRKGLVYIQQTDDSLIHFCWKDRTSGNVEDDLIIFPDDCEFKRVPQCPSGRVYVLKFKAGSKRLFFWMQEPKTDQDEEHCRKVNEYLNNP
In words: Competition assay with Rpn2 peptide for GST-Rpn13 PRU fusion protein. The following applies: protein preincubated with Rpn2 peptide 100 μM. How it is done:
As mentioned above, the Rpn13 PRU domain binds to the proteasome via association with a C-terminal peptide tail from Rpn2. […] The amount of protein retained on the resin was then evaluated using the same protocol described above.
This assay was conducted following the exact same procedure described above using two samples: GST-Rpn13 PRU (100 nM) alone, and GST-Rpn13 PRU (100 nM) that had been pretreated with Rpn2 peptide (100 μM) for 1 h at 4 °C. Each sample was added to separate wells of a microtiter plate.

The test system of another data set is Rpn13. The following applies: peptide derived from Rpn2; cited from earlier work.

Non-standard residues stand in square brackets, D forms with d. Residues, ends and D or L forms follow the SMILES beside them.

Broadly, the Kd is a measure of binding affinity in units of concentration. As to `NC(=O)[C@H]1CSCc2cccc(c2)C(=O)N(Cc2cccnc2)Cc2nc(cs2)C(=O)N(Cc2ccc(F)c(F)c2)Cc2nc(co2)C(=O)N1` [Compound 1], the Kd on SA [1] was about 0.6 µM. The “tighter binding to SA than compound 2” value with SA [2] is “more than 1000 times”. The “dose-dependent binding of SA-647 (MFI by flow cytometer)” value at SA-647 is “dose-dependent binding”.
Turning to `CC[C@H](C)[C@H](NC(=O)[C@H](Cc1ccc(O)cc1)NC(=O)[C@@H](CCC(=O)O)NC(=O)[C@H](Cc1ccccc1)NC(=O)[C@@H]1CCCN1C(=O)[C@H](CCC(=O)O)NC(=O)[C@@H]1CCCN1C(=O)[C@@H]1CCCN1C(=O)[C@H](CCC(=O)O)NC(=O)[C@@H]1CCCN1C(=O)[C@@H](CCC(=O)O)NC(=O)[C@H](CCC(N)=O)NC(=O)[C@@H]1CCCN1)C(=O)N[C@@H](CC(=O)O)C(N)=O` [Rpn2 peptide, reference compound] (H-PQ[dE]PEPPEPF[dE]YID-NH2), the “effect of soluble Rpn2 peptide competitor on binding of GST-Rpn13 PRU” value in data set [3] is listed as “strongly suppressed binding”. Besides, the “affinity for Rpn13” value in the data set on Rpn13 is “nanomolar affinity”.
